Results as given in PubChem BioAssay (NCI).
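GI50 = concentration required for 50% inhibition of growth. TGI: total growth inhibition.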

What was measured:
Assay in all cases: inhibition of tumour cell growth, NCI panel, 384-well format
NCI-H522 lung = test system: NCI-H522 lung
SNB-19 CNS = test system: SNB-19 CNS
OVCAR-3 ovarian = test system: OVCAR-3 ovarian
DU-145 prostate = test system: DU-145 prostate
CAKI-1 renal = test system: CAKI-1 renal
SK-MEL-2 melanoma = test system: SK-MEL-2 melanoma
EKVX NSCLC = test system: EKVX NSCLC
SK-MEL-28 melanoma = test system: SK-MEL-28 melanoma
ACHN renal = test system: ACHN renal
A549 NSCLC = test system: A549 NSCLC
UO-31 renal = test system: UO-31 renal
HCT-116 colon = test system: HCT-116 colon
SW-620 colon = test system: SW-620 colon
COLO 205 colon = test system: COLO 205 colon
SK-MEL-5 melanoma = test system: SK-MEL-5 melanoma
MCF7 breast = test system: MCF7 breast
UACC-62 melanoma = test system: UACC-62 melanoma
M14 melanoma = test system: M14 melanoma
HS 578T breast = test system: HS 578T breast
SN12C renal = test system: SN12C renal
MALME-3M melanoma = test system: MALME-3M melanoma
HOP-62 NSCLC = test system: HOP-62 NSCLC
MDA-MB-231 breast = test system: MDA-MB-231 breast
HOP-92 NSCLC = test system: HOP-92 NSCLC
HCT-15 colon = test system: HCT-15 colon
T-47D breast = test system: T-47D breast
HL-60(TB) leukemia = test system: HL-60(TB) leukemia
NCI-H460 NSCLC = test system: NCI-H460 NSCLC

In the case of COc1cccc2c1nc(C(F)F)n2-c1nc(-c2ccc(NS(=O)(=O)CCN(C)C)cc2)nc(N2CCOCC2)n1, the GI50 (NCI-H522 lung) is reported as 98.7 nM, the TGI (NCI-H522 lung) is reported as 689 nM and the GI50 (SNB-19 CNS) is reported as 3800 nM. For the same compound, the TGI (SNB-19 CNS) was 22100 nM, the GI50 (OVCAR-3 ovarian) was 138 nM and the TGI (OVCAR-3 ovarian) was 1110 nM. It also gave a GI50 (DU-145 prostate) of 263 nM, a TGI (DU-145 prostate) of 1390 nM and a GI50 (CAKI-1 renal) of 200 nM. The TGI (CAKI-1 renal) was 1420 nM, the GI50 (SK-MEL-2 melanoma) was 282 nM and the TGI (SK-MEL-2 melanoma) was 1540 nM. The GI50 (EKVX NSCLC) was 53.9 nM, the TGI (EKVX NSCLC) was 426 nM and the GI50 (SK-MEL-28 melanoma) was 191 nM. It also gave a TGI (SK-MEL-28 melanoma) of 17100 nM, a GI50 (ACHN renal) of 144 nM and a TGI (ACHN renal) of 1050 nM. It also gave a GI50 (A549 NSCLC) of 297 nM, a TGI (A549 NSCLC) of 1260 nM and a GI50 (UO-31 renal) of 125 nM. The TGI (UO-31 renal) was 384 nM, the GI50 (HCT-116 colon) was 320 nM and the TGI (HCT-116 colon) was 1510 nM. For the same compound, the GI50 (SW-620 colon) was 418 nM, the TGI (SW-620 colon) was 1780 nM and the GI50 (COLO 205 colon) was 219 nM. For the same compound, the TGI (COLO 205 colon) was 1100 nM, the GI50 (SK-MEL-5 melanoma) was 93.8 nM and the TGI (SK-MEL-5 melanoma) was 371 nM. It also gave a GI50 (MCF7 breast) of 21.3 nM, a TGI (MCF7 breast) of 299 nM and a GI50 (UACC-62 melanoma) of 206 nM. It also gave a TGI (UACC-62 melanoma) of 1250 nM, a GI50 (M14 melanoma) of 390 nM and a TGI (M14 melanoma) of 1710 nM. It also gave a GI50 (HS 578T breast) of 92.1 nM, a TGI (HS 578T breast) of 377 nM and a GI50 (SN12C renal) of 229 nM. It also gave a TGI (SN12C renal) of 12400 nM, a GI50 (MALME-3M melanoma) of 127 nM and a TGI (MALME-3M melanoma) of 874 nM. It also gave a GI50 (HOP-62 NSCLC) of 285 nM, a TGI (HOP-62 NSCLC) of 1420 nM and a GI50 (MDA-MB-231 breast) of 319 nM. It also gave a TGI (MDA-MB-231 breast) of 1800 nM, a GI50 (HOP-92 NSCLC) of 167 nM and a TGI (HOP-92 NSCLC) of 998 nM. For the same compound, the GI50 (HCT-15 colon) was 300 nM, the TGI (HCT-15 colon) was 1450 nM and the GI50 (T-47D breast) was 24 nM. The TGI (T-47D breast) was 120 nM, the GI50 (HL-60(TB) leukemia) was 116 nM and the TGI (HL-60(TB) leukemia) was 1100 nM. It also gave a GI50 (NCI-H460 NSCLC) of 302 nM.
